Earlier results, collected in patent publication US5567683A, “Substituted lactose and lactosamine derivatives as cell adhesion inhibitors” (Glycomed Incorporated, priority 1994, dated 1996).

Tested on: mammalian hepatocytes
Settings: effect of valency and spacing of lactose moieties; read-out: IC50 for inhibition of labeled ASOR binding to mammalian hepatocytes

Question: For `OC[C@H]1O[C@@H](O[C@H]2[C@H](O)[C@@H](O)C(O)O[C@@H]2CO)[C@H](O)[C@@H](O)[C@H]1O` (stereo partly shown) [monovalent lactose, lactose], which IC50 is on record?
Answer: 500 µM
